Results as given in US12084456B2, “Isocarbostyril alkaloids and functionalization thereof” (The Board of Trustees of the University of Illinois, priority 2018, dated 2024).
Converted amounts (≈) assume the structure as drawn. Like-named read-outs stand apart in the source and are kept apart here.

Experiments:
[1] = Mouse liver microsome assay; format: in vitro ADME; conditions: mouse liver microsomes, 3 h, percentage remaining
Description: A mixture of PBS (pH 7.4), NADPH regenerating system solution A (Corning Life Sciences), and NADPH regenerating system solution B (Corning Life Sciences) was incubated at 37° C. in a shaking incubator for 5 min. Next, compound was added in DMSO (final concentration 50 μM, 0.5% DMSO) before ice-cold mouse liver microsomes (Thermo Fisher, male CD-1 mice, pooled) were added (final protein concentration of 1 mg/mL). An aliquot was immediately removed, quenched with an equal volume of 100 μM internal standard in ice-cold acetonitrile, and centrifuged at 13,000 rcf for 3 min. The supernatant was diluted 1:5 in ddH2O and analyzed by LC-MS. The reactions were incubated at 37° C. in a shaking incubator for 3 h. A second aliquot was removed, quenched and diluted as before and analyzed by LC-MS. The ratio of the areas of analyte:internal standard at 3 hours was compared to the ratio at t0 to determine the percentage of compound remaining. Analysis was performed using a Kinetex® Evo C-18 50 mm column running a gradient from 3%→95% MeCN in water over 9 minutes at 0.4 mL/min. Internal standard=(+)-pancratistatin tetaacetate S4.

A549 cells = conditions: for anticancer activity / cytotoxicity in words: human lung and colon cancer cell lines (A549 and HCT116); for IC50: read-out: Activity data for compounds: A549
HCT116 cells = experiment: Cell viability assay (Alamar Blue, 72 h), HCT116; format: cell-based, human; conditions: for IC50: read-out: Activity data for compounds: HCT116
[2] = Solubility assay (shake-flask method); format: physicochemical; conditions: for solubility at 24 h: thermodynamic from solid, water, stirred 24 hours, shake-flask, LCMS, read-out: aq. Solubility; for increased solubility when compared to natural counterpart: 47 vs narciclasine, 52 vs pancratistatin
Description: A calibration was made for each compound by diluting a 1 mM DMSO solution to 10, 25, 50, 75, and 100 μM and then measuring their relative UV absorbance by LC-MS using a Kinetex© Evo C-18 50 mm column running a gradient from 5%→90% MeCN in water over 4 minutes at 0.4 mL/min.
The aqueous solubility of each compound was measured using the shake-flask method. 1.0 mg of compound was diluted to 40 mM with water then stirred for 24 hours. Each solution was then filtered, diluted 10-fold, and analyzed by LCMS. The relative UV absorbance of each compound was then compared to its calibration curve to quantify its aqueous solubility.

[3] = A549 human lung cancer cells, 72 h, Alamar Blue
[4] = HCT116 human colon cancer cells, 72 h, Alamar Blue
[5] = HCT-116, HCT116 human colon cancer cells, 72 h, Alamar Blue

Structure (SMILES) | anticancer activity / cytotoxicity in words (A549 cells) | IC50 (A549 cells; [3]) [µM] | IC50 (A549 cells) [µM] | IC50 (HCT116 cells; Homo sapiens, HCT-116, 72 h) [µM] | IC50 (HCT116 cells; [5]) [µM] | other results
[2H]C1([2H])Oc2cc3c(c(O)c2O1)C(=O)N[C@@H]1C3=C[C@H](O)[C@@H](O)[C@H]1O [4-d2, (+)-narciclasine 4-d2] | equipotent activity | 0.07 | – | – | – | greater metabolic stability when compared to narciclasine (4) [1]: ~30%; IC50 (HCT116 cells; [4]): 0.04 µM
[2H]C1=C2c3cc4c(c(O)c3C(=O)N[C@@]2([2H])[C@]([2H])(O)[C@]([2H])(O)[C@@]1([2H])O)OCO4 [4-d5, (+)-narciclasine 4-d5] | equipotent activity | 0.066 | – | – | – | greater metabolic stability when compared to narciclasine (4) [1]: ~30%; IC50 (HCT116 cells; [4]): 0.043 µM
O=C1N[C@H]2[C@H](O)[C@H](O)[C@@H](O)[C@H](O)[C@@H]2c2cc3c(cc21)OCO3 [compound 1, (+)-7-deoxypancratistatin, reference compound] | – | – | 2.9 | 1.5 | – | –
O=C1N[C@H]2[C@H](O)[C@H](O)[C@@H](O)[C@H](O)[C@@H]2c2cc3c(c(O)c21)OCO3 [compound 2, (+)-pancratistatin, reference compound] | – | – | 0.75 | 0.44 | – | solubility at 24 h [2]: 560 ± 70 µg/mL (≈ 1.72 mM)
O=C1N[C@@H]2C(=C[C@H](O)[C@@H](O)[C@H]2O)c2cc3c(cc21)OCO3 [compound 3, (+)-lycoricidine, reference compound] | – | 0.73 | – | – | 0.54 | –
O=C1N[C@@H]2C(=C[C@H](O)[C@@H](O)[C@H]2O)c2cc3c(c(O)c21)OCO3 [compound 4, (+)-narciclasine, reference compound] | – | 0.056 | – | – | – | IC50 (HCT116 cells; [4]): 0.0324 µM
C=CCc1c2c(cc3c1C(=O)N[C@@H]1C3=C[C@H](O)[C@@H](O)[C@H]1O)OCO2 [compound 38, 7-allyl lycoricidine] | – | – | > 100 | > 100 | – | –
O=C1N[C@@H]2C(=C[C@H](O)[C@@H](O)[C@H]2O)c2cc3c(c(C(=O)c4ccccc4)c21)OCO3 [compound 39, 7-oxophenyl lycoricidine] | – | – | 44 | 35 | – | –
COCc1c2c(cc3c1C(=O)N[C@@H]1C3=C[C@H](O)[C@@H](O)[C@H]1O)OCO2 [compound 40, 7-methoxymethyl lycoricidine] | – | – | 48 | 50 | – | –
O=C1N[C@@H]2C(=C[C@H](O)[C@@H](O)[C@H]2O)c2cc3c(c(CO)c21)OCO3 [compound 41, 7-hydroxymethyl lycoricidine] | less potent | – | > 100 | > 100 | – | –
COC(=O)c1c2c(cc3c1C(=O)N[C@@H]1C3=C[C@H](O)[C@@H](O)[C@H]1O)OCO2 [compound 42, 7-carboxymethyl lycoricidine] | – | – | 39 | 29 | – | –
O=C1N[C@@H]2C(=C[C@H](O)[C@@H](O)[C@H]2O)c2cc3c(c(C(=O)O)c21)OCO3 [compound 43, lycoricidine-7-carboxylic acid] | – | > 100 | – | 80 | – | –
CCOC(=O)Cc1c2c(cc3c1C(=O)N[C@@H]1C3=C[C@H](O)[C@@H](O)[C@H]1O)OCO2 [compound 44, ethyl 2-(7-lycoricidinyl)acetate] | – | 74 | – | – | 80 | –
O=C(O)Cc1c2c(cc3c1C(=O)N[C@@H]1C3=C[C@H](O)[C@@H](O)[C@H]1O)OCO2 [compound 45, 2-(7-lycoricidinyl)acetic acid] | – | – | 89 | 70 | – | –
N#Cc1c2c(cc3c1C(=O)N[C@@H]1C3=C[C@H](O)[C@@H](O)[C@H]1O)OCO2 [compound 46, 7-cyanolycoricidine] | – | – | 1.2 | 0.48 | – | activity compared to lycoricidine (3) in HCT116 cells (HCT116 cells): increased activity when compared to lycoricidine
Nc1c2c(cc3c1C(=O)N[C@@H]1C3=C[C@H](O)[C@@H](O)[C@H]1O)OCO2 [compound 47, 7-aminolycoricidine] | – | – | 0.38 | 0.39 | – | increased solubility when compared to natural counterpart [2]: 11 fold; solubility at 24 h [2]: 3740 ± 200 µg/mL (≈ 12.2 mM)
CNc1c2c(cc3c1C(=O)N[C@@H]1C3=C[C@H](O)[C@@H](O)[C@H]1O)OCO2 [compound 48, N-methyl-7-aminolycoricidine] | did not show significant cytotoxicity | 28 | – | – | 12 | –
CC(=O)Nc1c2c(cc3c1C(=O)N[C@@H]1C3=C[C@H](O)[C@@H](O)[C@H]1O)OCO2 [compound 49, 7-acetamidelycoricidine] | did not show significant cytotoxicity | > 100 | – | – | > 100 | –
O=C1N[C@@H]2C(=C[C@H](O)[C@@H](O)[C@H]2O)c2cc3c(c(N4CCCC4)c21)OCO3 [compound 50] | did not show significant cytotoxicity | > 100 | – | – | > 100 | –
O=C1N[C@@H]2C(=C[C@H](O)[C@@H](O)[C@H]2O)c2cc3c(c(N4CCOCC4)c21)OCO3 [compound 51, 7-(4-morpholinyl)lycoricidine] | did not show significant cytotoxicity | 39 | – | – | 33 | –
Nc1c2c(cc3c1C(=O)N[C@H]1[C@H](O)[C@H](O)[C@@H](O)[C@H](O)[C@H]31)OCO2 [compound 52, 7-aminopancratistatin] | – | – | 9 | 3.4 | – | increased solubility when compared to natural counterpart [2]: 6 fold; solubility at 24 h [2]: 3460 ± 140 µg/mL (≈ 10.7 mM)
COc1cccc2c1C(=O)c1c(O)c3c(c(O)c1C2=O)C[C@@](O)(C(=O)CO)C[C@@H]3O[C@H]1C[C@H](N)[C@H](O)[C@H](C)O1 [doxorubicin, reference compound] | – | 0.22 | – | – | 0.147 | –
